Data reported in a melting point compilation (Tetko et al.; mined from patent text by program, amines drawn as free bases though some values may be those of a salt).

Row | SMILES | melting point
1 | CCCCN(CCCC)c1cc(OC)c(C=Cc2cccs2)c(OC)c1 | 90 °C
2 | Cc1cc(C)cc(OCC(C)O)c1 (configuration not stated) | 48.7 to 49.5 °C
3 | Fc1ccc2c(c1)C(OCc1c(F)cccc1F)C(Cn1ccnc1)S2 (configuration not stated) | 167 to 168 °C
4 | COc1ccc(OC)c2c1C[C@](O)(C1(C)OCCO1)CC2=O | 183 to 184 °C
5 | CCC1c2nc[nH]c2CCN1C(=S)NC (configuration not stated) | 230 °C
6 | CCC(Oc1cccc(C(F)F)c1Cl)C1=NCCN1 (configuration not stated) | 96 to 97 °C
7 | CCCCCCCCCCc1ccc(NC(=O)c2cc(Cl)cc(Cl)c2O)cc1 | 90 to 91 °C
8 | CCOc1ccccc1C(C)CC(=O)Nc1sc2c(c1C#N)CCNC2 (racemic) | 111 to 115 °C
9 | CCN(CC)C(=O)c1cccc(F)c1[Si](C)(C)C(C)(C)C | 50 to 51 °C
10 | O=C1CCC(Cc2ccccc2Cl)CC1 | 48 °C
11 | COc1cc(OC)cc(C(=O)NC(NC(=NC#N)Nc2ccc(C(F)(F)F)nc2)C(C)(Cl)Cl)c1 (configuration not stated) | 187 to 189 °C
12 | CCCC1=NN=C2C1=C1C=CC=CN1C(=O)C2C#N (configuration not stated) | 298 to 300 °C
13 | CCOC(=O)C1=C(C)Nc2nc(N3CCOCC3)nc(N3CCOCC3)c2C1c1ccccc1C#N (configuration not stated) | 248 °C
14 | COCCCNCC(=O)Nc1ccc(C(=O)OC)cc1 | 49 to 50 °C
15 | COC(=O)C(=Cc1cc(OC)cc(OC)c1)c1ccc(Oc2ccc(C=O)cc2)cc1 | 108 to 110 °C
16 | CCOC(=O)c1nc(NC(C)=O)sc1Cc1cccc(SC)c1 | 188 °C
17 | CC12CCC(=O)C=C1CCC1C2CCC2(C)C(n3ccnc3)=CCC12 (configuration not stated) | 147 to 150 °C
18 | CC(C)(C)CCNC(=O)N(CCCl)N=O | 43 to 43.5 °C
19 | CCN1C(=O)NC(=O)C1O (configuration not stated) | 119 to 120 °C

Row | SMILES | melting point
20 | CC(C)On1c(C2CCCCC2)nc2c(N)nc3ccccc3c21 | 175 to 178 °C
21 | CCN(Cc1ccccc1)C(=O)Cc1c(-c2ccc(Cl)c(Cl)c2)nc2cc(C)ccn12 | 180 to 182 °C
22 | COC(=O)C1C(Sc2ccccc2)CC2CCC1N2C (configuration not stated) | 55 to 57 °C
23 | CCOC(=O)C1=C(N)N=C(SCC)C(C(=O)OCC)C1c1ccncc1 (configuration not stated) | 156 °C
24 | CC(C)(C)OC(=O)N1CCC(c2ccc(C(=O)N3CCc4cc(S(C)(=O)=O)ccc43)nc2)CC1 | 202 to 205 °C
25 | CN1CN(C)C(=N[N+](=O)[O-])N(Cc2cnc(Cl)s2)C1 | 125 to 126 °C
26 | CCc1cc(C)cc(CC)c1CC(=O)O | 124 °C
27 | O=C(O)CCCC1CCN(CCOC(c2ccc(F)cc2)c2ccc(F)cc2)CC1 | 145 to 147 °C
28 | COc1cn(-c2cccc(C(F)(F)F)c2)nc(C(=O)N(C)OC)c1=O | 170 to 171 °C
29 | COc1cnc(OC)n2c(N)nnc12 | 232 to 235 °C
30 | Nc1ccc2oc3c(c2c1)CCC3 | 86.5 to 88.5 °C
31 | Cc1nc(C#N)nc(NCC(F)(F)F)c1I | 103 to 105 °C
32 | Cc1cccnc1C(=O)NCCNC(=O)OC(C)(C)C | 81 to 82 °C
33 | O=C1CCCCc2ccc(N3C[C@H](CO)OC3=O)cc21 | 144 to 146 °C
34 | CCCCP(=CC#N)(CCCC)CCCC | 131 to 132 °C
35 | OP(O)C1(NC(c2ccccc2)c2ccccc2)CCCC1 | 204 to 205 °C
36 | CC(C)N1CCN(c2ccc(OCC(O)CC(O)(Cn3cncn3)c3ccc(Cl)cc3Cl)cc2)CC1 (configuration not stated) | 131 to 132 °C
37 | CCOC(=O)c1cnc2n(c1=O)C(C)CCC2C(=S)NC (configuration not stated) | 199 to 200 °C
38 | CS(=O)(=O)CC(N)C1(c2ccc(Cl)cc2)CCC1 (configuration not stated) | 134 to 135 °C

Row | SMILES | melting point
39 | O=C1CN(c2cncc(Cl)n2)CCN1 | 192 to 193 °C
40 | CC1CC(=O)NN=C1c1ccc(N2CCN(c3ncccn3)CC2)c([N+](=O)[O-])c1 (configuration not stated) | 232 to 233 °C
41 | CCN(CC)CCNC(=O)c1cnc2ccc(I)cc2c1Cl | 76 to 78 °C
42 | CC1=Cc2cc(C#N)ccc2OC1(C)C | 55 °C
43 | CCOC(=O)c1c(C(F)(F)F)nc(C(F)(F)F)c(C)c1O | 23 to 24.5 °C
44 | C=CCC(O)CCCCCCCCCCCCCCCCC (configuration not stated) | 48 to 50.5 °C
45 | O=C(O)c1ccc(C2=NCCO2)nc1 | 286 to 287 °C
46 | CC(c1ccc(C(F)(F)F)cc1[N+](=O)[O-])[N+](=O)[O-] (configuration not stated) | 48 °C
47 | COc1ccc(CN2CCC(c3cn(Cc4cccs4)c4cc(F)ccc34)CC2)cc1C(=O)O | 245 to 246 °C
48 | CN(C)CCc1c[nH]c2ccc(Oc3ccc(Br)cc3)cc12 | 160 to 162 °C
49 | CC1(c2ccc([N+](=O)[O-])cc2)OCCO1 | 69 to 71 °C
50 | CCOP(=S)(OCC)ON=C1C=CC(=C(C#N)c2ccccc2C)S1 | 86 to 87 °C
51 | Clc1ccc(CC(Cn2cncn2)Cn2cncn2)cc1 | 107 to 108 °C
52 | CC(C)(C)OC(=O)NCC(N)c1c[nH]c2cc(Br)ccc12 (configuration not stated) | 80 °C
53 | O=C(O)c1ccc(NCc2sc(Cl)cc2Cl)cc1 | 169 to 170 °C
54 | CC(C)(C)c1cc(CCc2ccccc2NC(=O)NC2CCN(Cc3ccc(C#N)cc3)CC2)cc(C(C)(C)C)c1O | 197 to 198 °C
55 | CCOC(=O)C1C(=O)NC(=O)C(C#N)C12CCCCC2 (configuration not stated) | 167 to 170 °C
56 | Clc1cccc(CCC2(Cn3ccnc3)SCCS2)c1 | 224 to 227 °C
57 | CC(=O)OCC(=O)Nc1cccc(Cl)c1C#N | 109 to 110 °C

Second part, the compound after the results:

Row | melting point | SMILES
58 | 152 to 153 °C | CC(C)Nc1cccnc1N1CCN(C(=O)c2ccc(C(=O)N(C(C)C)C(C)C)cc2)CC1
59 | 239 to 240 °C | O=C(O)C=Cc1ccc(OCC2CN(c3ccccc3)C(=O)O2)cc1 (configuration not stated)
60 | 194 to 195 °C | COc1cc(S(=O)(=O)Nc2ccccc2)c(OC)cc1NC(=O)[C@@](C)(O)C(F)(F)F
61 | 229 to 230 °C | COC(=O)c1cc(NC(=O)c2ccnc(C)c2)c2cc(Cc3ccc(F)cc3)cnc2c1O
62 | 74 to 77 °C | COc1ccc(C(=O)c2c(-c3ccc(OCCN4CCCC4)cc3)sc3cc(OCc4ccccc4)ccc23)cc1OC
63 | 191 °C | Cn1c(OC2CCOC2)nn(C(=O)NS(=O)(=O)c2ccccc2Br)c1=O (configuration not stated)
64 | 105 to 106 °C | CCOC(=O)c1ccc(-c2csc(-c3ccc(Cl)cc3)n2)cc1
65 | 113 °C | O=C(c1ccc(CBr)cc1)c1ccc([N+](=O)[O-])cc1
66 | 146 to 149 °C | CS(=O)(=O)c1ccc(-c2cccn2-c2ccc(F)c(Cl)c2)cc1
67 | 113 to 119 °C | COc1nnc(Cl)c(-c2c(F)cc(F)cc2F)c1-c1ccc(Br)cc1
68 | 145 to 146 °C | COc1ccc(C=CC(O)C(O)C=Cc2ccc(OC)cc2)cc1 (configuration not stated)
69 | 146 to 147 °C | COc1ccc(Cc2nccc3ccccc23)cc1OC
70 | 151 to 153 °C | COC(=O)NCc1nc(-c2ccc3c(c2)Nc2ccccc2S3)cs1
71 | 286 to 288 °C | O=C1NCc2nc3ccc(Cl)cc3c(=O)n2-c2ccccc21
72 | 180 to 181 °C | CS(=O)(=O)c1ccc(-c2ccccc2-c2ccc(F)c(Cl)c2)cc1
73 | 144 °C | CCCc1nc(SC(F)F)c(C(=O)O)n1Cc1ccc(-c2ccccc2S(=O)(=O)NC(=O)NCc2cccc3ccccc23)cc1
74 | 236 to 237 °C | COc1ccc(-c2cccc(Nc3nccc(-c4sc(N)nc4-c4ccccc4)n3)c2)cc1OC
75 | 153 to 154 °C | O=C(N[C@H](Cc1ccc(C(F)(F)F)o1)[C@@H](O)c1ccc(F)cc1)c1ccc(F)c2ccccc12 (racemic)
76 | > 250 °C | O=C1CC(c2cccc(-n3ccnn3)c2)=Nc2cc(O)c(-c3ccccc3F)cc2N1
77 | 243 to 246 °C | N#CC(C(=O)Nc1ccccc1)C(=O)c1nn(-c2ccccc2)c2c1COc1ccc(Cl)cc1-2 (configuration not stated)
78 | 118 to 123 °C | N#Cc1ccc(C(F)(F)C(F)(F)c2ccccc2)cc1
79 | 296 °C | NS(=O)(=O)c1ccc(-c2noc(-c3cnn4c(C(F)(F)F)cc(-c5ccc(Cl)cc5)nc34)n2)cc1
80 | 231 to 233 °C | O=C(O)C1CCCc2c(noc2-c2ccc(Cl)cc2)C1 (configuration not stated)

Row | melting point | SMILES
81 | 189 °C | CNc1cccc2c1CCn1cc(-c3ccccc3)nc1C2OC1CCN(C)CC1 (configuration not stated)
82 | > 260 °C | Cc1ccc(-c2nc3c(o2)C(=O)c2ccccc2C3=O)cc1
83 | 197 to 198 °C | NC(=O)c1[nH]c2ccccc2c1Sc1ccccc1
84 | 146 to 147 °C | O=C1NC(=C2CCCCC2)Sc2ccccc21
85 | 61.9 °C | NC(CO)COc1ccc(Oc2ccccc2)cc1 (configuration not stated)
86 | 83 to 84 °C | COc1ccc(-c2nn(CCCCCCBr)c(=O)c3ccccc23)cc1OC
87 | 255 to 256 °C | O=c1c(C2=Nc3ccccc3S(=O)(=O)N2)c(O)c2ccccc2n1CC1CCCC1
88 | 224 to 227 °C | Cc1ccc(NC(=O)c2ccccc2SSc2ccccc2C(=O)Nc2ccc(C)c(C)c2)cc1C
89 | 222 to 225 °C | NC(=O)CN1C(=O)[C@@H](NC(=O)c2cc3ccccc3[nH]2)[C@H](c2ccccc2)Sc2ccccc21 (relative stereo)
90 | 63 to 64 °C | CCOC(=O)c1ccc(NCCCCCc2ccccc2)cc1
91 | 192 to 194 °C | NNC(=O)CC1(O)c2ccccc2C=Cc2ccccc21
92 | 293 to 295 °C | Cc1nnc2ccc(-c3ccc([N+](=O)[O-])c(C(F)(F)F)c3)nn12
93 | 177 to 179 °C | Cn1nc(-c2ccc(C(=O)N3CCN(C4CCCC4)CC3)cc2)ccc1=O
94 | 89 to 90 °C | COC(=O)CCc1cc(C(=O)c2ccccc2Cl)c(N)s1
95 | 180 °C | O=C(O)CCc1cc2nc(C(F)(F)F)ccc2n1S(=O)(=O)c1ccccc1
96 | 249 to 250 °C | CN1CCC(c2c(O)cc(O)c3c(=O)cc(-c4ccccc4Cl)oc23)C1Cn1ccnc1 (configuration not stated)
97 | 160 to 161 °C | Cc1ccc(-c2cc(C(F)F)nn2-c2ccc(S(N)(=O)=O)c(F)c2)cc1Cl
98 | 125 to 127 °C | CON(C)C(=O)c1cc(O)cc2cc(-c3ccc(O)cc3)oc12
99 | 127 to 128 °C | COc1ccc2c(c1OC)CC(c1ccccc1)CC2=O (configuration not stated)
100 | 116 to 118 °C | O=C(NC(CO)C(=O)c1ccc(Cl)cc1)C1CCN(C(=O)OCc2ccccc2)CC1 (configuration not stated)
101 | 248 to 250 °C | Cc1ccc(NC(=O)N(C)Cc2cccc3c2CN(C2CCC(=O)NC2=O)C3=O)cc1Cl (configuration not stated)
102 | 85 to 87 °C | COc1cc(C)cc2nc(SCc3ccccc3)nn12
